According to publication PMC10692473 (Acta Pharmaceutica Sinica. B, 2023):
Values after ≈ are worked out from the molar mass of the structure shown.

How the values were obtained:
[1] = system: E. faecalis ATCC51575; assay: Antibacterial spectrum; conditions: Enterococcus faecalis
[2] = Pharmacokinetics study on beagle dogs; format: in vivo
[3] = target: E. coli gyrase (Escherichia coli, UniProt P0AES6); assay: Gyrase inhibitory assay; format: biochemical
[4] = system: E. coli (ATCC25922); assay: Antibacterial assay; conditions: Escherichia coli, ATCC25922, read-out: MIC E. coli (ATCC25922)
[5] = system: MRSA (ATCC43300); assay: Neutropenic murine thigh MRSA infection model; format: in vivo, ICR mice; conditions: 2.5 mg/kg iv, 24 h
[6] = system: E. faecalis ATCC51299; assay: Antibacterial spectrum; conditions: Enterococcus faecalis
[7] = system: S. aureus MRSA15-2; assay: Antibacterial spectrum; conditions: Staphylococcus aureus, MRSA152
[8] = system: S. epidermidis MSSE15-3; assay: Antibacterial spectrum; conditions: Staphylococcus epidermidis, MSSE153
[9] = system: Salmonella typhimurium TA98 and TA100 strains; assay: Mini-Ames test; format: cell-based
[10] = system: S. aureus (ATCC29213); assay: Time-killing curves / killing kinetic studies; format: cell-based; conditions: 4, 8, and 16 × MIC
[11] = system: methicillin-resistant S. aureus (ATCC43300); assay: Spontaneous drug resistance frequency; format: cell-based; conditions: MRSA ATCC43300, 4 × MIC
[12] = system: S. epidermidis MRSE15-1; assay: Antibacterial spectrum; conditions: Staphylococcus epidermidis, MRSE151
[13] = target: hERG channel (Homo sapiens, UniProt Q12809); assay: Inhibition evaluation on hERG K+ channel; format: cell-based
Chain of hERG channel (Q12809 whole entry): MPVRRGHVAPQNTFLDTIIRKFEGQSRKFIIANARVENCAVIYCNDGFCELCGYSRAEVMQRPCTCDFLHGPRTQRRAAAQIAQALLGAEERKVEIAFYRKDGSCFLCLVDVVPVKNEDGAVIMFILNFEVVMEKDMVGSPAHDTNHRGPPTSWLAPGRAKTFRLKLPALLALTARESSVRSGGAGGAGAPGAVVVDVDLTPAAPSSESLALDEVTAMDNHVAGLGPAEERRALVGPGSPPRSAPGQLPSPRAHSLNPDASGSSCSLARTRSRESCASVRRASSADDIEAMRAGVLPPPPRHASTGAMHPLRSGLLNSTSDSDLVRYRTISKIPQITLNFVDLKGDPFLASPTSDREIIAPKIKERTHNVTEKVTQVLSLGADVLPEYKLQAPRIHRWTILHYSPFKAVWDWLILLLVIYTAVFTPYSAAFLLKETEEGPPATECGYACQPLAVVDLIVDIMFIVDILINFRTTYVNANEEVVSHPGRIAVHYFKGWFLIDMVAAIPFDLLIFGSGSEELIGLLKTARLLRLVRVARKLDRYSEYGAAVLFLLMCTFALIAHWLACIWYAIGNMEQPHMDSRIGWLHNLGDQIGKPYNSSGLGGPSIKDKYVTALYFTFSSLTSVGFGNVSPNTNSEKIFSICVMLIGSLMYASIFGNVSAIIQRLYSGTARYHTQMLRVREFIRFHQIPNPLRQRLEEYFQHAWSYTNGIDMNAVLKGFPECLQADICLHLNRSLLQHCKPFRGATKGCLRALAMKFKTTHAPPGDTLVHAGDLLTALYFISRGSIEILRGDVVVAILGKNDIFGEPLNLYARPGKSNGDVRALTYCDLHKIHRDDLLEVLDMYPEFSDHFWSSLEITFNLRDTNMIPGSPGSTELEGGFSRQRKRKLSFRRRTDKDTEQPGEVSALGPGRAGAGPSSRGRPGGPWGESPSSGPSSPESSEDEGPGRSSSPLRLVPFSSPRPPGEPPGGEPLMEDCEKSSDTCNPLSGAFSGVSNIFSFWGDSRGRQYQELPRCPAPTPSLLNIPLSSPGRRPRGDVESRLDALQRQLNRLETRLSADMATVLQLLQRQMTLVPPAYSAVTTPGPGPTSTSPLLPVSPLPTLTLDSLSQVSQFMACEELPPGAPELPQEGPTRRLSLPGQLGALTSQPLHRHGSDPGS

[14] = system: S. aureus VISA5827; assay: Antibacterial spectrum; conditions: Staphylococcus aureus
[15] = system: S. aureus (ATCC29213); assay: Spontaneous drug resistance frequency; format: cell-based; conditions: S. aureus ATCC29213, 4 × MIC
[16] = system: S. aureus (ATCC29213); assay: Antibacterial assay; conditions: Staphylococcus aureus, ATCC29213, read-out: MIC S. aureus (ATCC29213)
[17] = system: P. aeruginosa ATCC27853; assay: Antibacterial spectrum; conditions: Pseudomonas aeruginosa
[18] = target: E. coli Topo IV (Escherichia coli, UniProt P20083); assay: Topo IV inhibitory assay; format: biochemical
Chain of E. coli Topo IV (P20083 whole entry): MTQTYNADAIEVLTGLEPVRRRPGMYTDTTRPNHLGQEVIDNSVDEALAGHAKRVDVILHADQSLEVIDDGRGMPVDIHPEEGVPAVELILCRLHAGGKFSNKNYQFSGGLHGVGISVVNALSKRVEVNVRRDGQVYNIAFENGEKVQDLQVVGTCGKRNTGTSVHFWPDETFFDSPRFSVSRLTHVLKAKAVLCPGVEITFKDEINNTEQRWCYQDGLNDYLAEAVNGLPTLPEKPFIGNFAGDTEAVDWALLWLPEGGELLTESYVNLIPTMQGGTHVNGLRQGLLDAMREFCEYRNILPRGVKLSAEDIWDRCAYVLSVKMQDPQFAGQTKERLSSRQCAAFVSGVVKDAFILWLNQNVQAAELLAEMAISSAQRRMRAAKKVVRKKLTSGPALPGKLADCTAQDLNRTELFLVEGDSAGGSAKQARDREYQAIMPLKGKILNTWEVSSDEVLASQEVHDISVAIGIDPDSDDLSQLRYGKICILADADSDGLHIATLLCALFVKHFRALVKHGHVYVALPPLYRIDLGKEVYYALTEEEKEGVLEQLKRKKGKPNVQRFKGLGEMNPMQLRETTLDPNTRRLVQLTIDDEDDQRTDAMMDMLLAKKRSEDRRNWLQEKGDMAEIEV
Chain of E. coli Topo IV (P0AFI2 whole entry partner): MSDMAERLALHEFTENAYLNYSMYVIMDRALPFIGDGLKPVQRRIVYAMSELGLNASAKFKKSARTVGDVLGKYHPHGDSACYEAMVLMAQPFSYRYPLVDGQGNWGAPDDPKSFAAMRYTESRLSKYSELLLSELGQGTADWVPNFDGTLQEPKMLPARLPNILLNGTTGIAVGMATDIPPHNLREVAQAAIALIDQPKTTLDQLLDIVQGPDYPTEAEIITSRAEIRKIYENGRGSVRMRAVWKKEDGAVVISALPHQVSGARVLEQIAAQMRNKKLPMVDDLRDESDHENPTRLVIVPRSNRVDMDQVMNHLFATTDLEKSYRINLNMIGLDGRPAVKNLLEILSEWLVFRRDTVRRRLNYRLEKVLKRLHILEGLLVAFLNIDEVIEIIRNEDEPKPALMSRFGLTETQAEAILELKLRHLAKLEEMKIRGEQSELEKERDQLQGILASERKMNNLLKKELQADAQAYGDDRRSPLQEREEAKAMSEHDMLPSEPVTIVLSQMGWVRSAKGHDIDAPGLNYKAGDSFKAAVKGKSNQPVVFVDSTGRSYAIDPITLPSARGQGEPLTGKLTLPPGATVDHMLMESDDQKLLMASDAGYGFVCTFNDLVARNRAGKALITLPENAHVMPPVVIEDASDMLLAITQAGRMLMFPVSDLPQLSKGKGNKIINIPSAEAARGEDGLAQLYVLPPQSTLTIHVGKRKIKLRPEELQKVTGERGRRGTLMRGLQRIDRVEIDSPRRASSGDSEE

[19] = Cytotoxicity assay; conditions: human, LO2 normal hepatocytes
[20] = system: S. epidermidis MRSE15-2; assay: Antibacterial spectrum; conditions: Staphylococcus epidermidis, MRSE152
[21] = target: S. aureus gyrase (Staphylococcus aureus, UniProt P0A0K8); assay: Gyrase inhibitory assay; format: biochemical
[22] = Mouse acute toxicity test; design: species or system ICR mice; conditions: both, ICR, in vivo
[23] = system: A. baumannii ATCC19606; assay: Antibacterial spectrum; conditions: Acinetobacter baumannii
[24] = Cytotoxicity assay; conditions: human, HEK293 embryonic kidney cells
[25] = system: S. aureus ATCC43300; assay: Antibacterial spectrum; conditions: Staphylococcus aureus
[26] = system: S. aureus MRSA15-1; assay: Antibacterial spectrum; conditions: Staphylococcus aureus, MRSA151
[27] = system: S. aureus VISA5836; assay: Antibacterial spectrum; conditions: Staphylococcus aureus
[28] = target: S. aureus GyrB24 (Staphylococcus aureus, UniProt P0A0K8); assay: Surface plasmon resonance; format: binding
Chain of S. aureus GyrB24 (P0A0K8 2-220): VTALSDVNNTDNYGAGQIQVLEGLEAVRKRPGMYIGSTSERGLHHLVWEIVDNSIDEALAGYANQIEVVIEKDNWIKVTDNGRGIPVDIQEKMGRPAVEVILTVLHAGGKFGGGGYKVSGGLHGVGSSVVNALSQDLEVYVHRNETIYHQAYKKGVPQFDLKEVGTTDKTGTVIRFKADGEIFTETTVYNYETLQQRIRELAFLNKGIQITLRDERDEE

[29] = Cytotoxicity assay; conditions: human, HK2 renal tubular epithelial cells
[30] = target: S. aureus Topo IV (Staphylococcus aureus, UniProt P0C1S7); assay: Topo IV inhibitory assay; format: biochemical
Chain of S. aureus Topo IV (P0C1S7 whole entry): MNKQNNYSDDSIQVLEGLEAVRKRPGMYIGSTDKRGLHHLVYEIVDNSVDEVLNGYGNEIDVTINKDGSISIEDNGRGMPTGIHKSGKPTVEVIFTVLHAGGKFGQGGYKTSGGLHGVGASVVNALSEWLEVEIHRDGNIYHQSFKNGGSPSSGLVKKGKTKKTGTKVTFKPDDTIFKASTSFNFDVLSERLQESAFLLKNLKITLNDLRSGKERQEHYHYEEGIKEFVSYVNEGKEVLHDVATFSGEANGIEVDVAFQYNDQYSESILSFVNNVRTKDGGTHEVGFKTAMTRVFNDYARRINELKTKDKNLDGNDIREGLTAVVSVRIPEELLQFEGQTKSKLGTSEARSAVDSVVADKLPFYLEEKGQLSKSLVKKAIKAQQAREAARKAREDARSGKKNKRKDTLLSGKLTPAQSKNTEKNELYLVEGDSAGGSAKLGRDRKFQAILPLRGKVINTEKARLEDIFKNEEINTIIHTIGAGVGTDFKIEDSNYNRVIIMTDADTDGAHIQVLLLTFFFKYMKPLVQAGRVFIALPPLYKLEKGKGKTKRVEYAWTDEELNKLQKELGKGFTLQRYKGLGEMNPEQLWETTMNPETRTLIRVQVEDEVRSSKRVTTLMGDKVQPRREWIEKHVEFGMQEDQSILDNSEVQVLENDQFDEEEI
Chain of S. aureus Topo IV (P0C1U9 whole entry partner): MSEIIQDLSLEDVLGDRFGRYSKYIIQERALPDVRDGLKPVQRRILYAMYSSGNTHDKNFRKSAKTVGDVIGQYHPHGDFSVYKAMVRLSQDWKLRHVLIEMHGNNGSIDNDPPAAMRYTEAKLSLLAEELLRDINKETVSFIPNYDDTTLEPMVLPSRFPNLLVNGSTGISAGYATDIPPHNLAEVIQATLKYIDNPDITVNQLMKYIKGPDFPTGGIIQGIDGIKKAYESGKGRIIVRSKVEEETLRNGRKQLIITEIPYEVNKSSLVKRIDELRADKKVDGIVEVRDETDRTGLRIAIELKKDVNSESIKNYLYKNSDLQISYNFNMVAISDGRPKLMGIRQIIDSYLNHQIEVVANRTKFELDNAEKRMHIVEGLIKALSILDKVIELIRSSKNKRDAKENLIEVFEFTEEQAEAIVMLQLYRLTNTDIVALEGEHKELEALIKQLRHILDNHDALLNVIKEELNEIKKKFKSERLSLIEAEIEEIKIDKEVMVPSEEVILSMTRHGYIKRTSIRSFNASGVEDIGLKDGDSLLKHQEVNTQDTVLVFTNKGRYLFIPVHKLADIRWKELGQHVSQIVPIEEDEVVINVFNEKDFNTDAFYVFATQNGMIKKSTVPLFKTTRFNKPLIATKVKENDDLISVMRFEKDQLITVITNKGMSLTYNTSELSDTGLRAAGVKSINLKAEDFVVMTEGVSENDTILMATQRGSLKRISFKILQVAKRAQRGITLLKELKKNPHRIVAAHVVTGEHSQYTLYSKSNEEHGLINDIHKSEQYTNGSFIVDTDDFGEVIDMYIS

[31] = system: S. aureus MSSA15-1; assay: Antibacterial spectrum; conditions: Staphylococcus aureus, MSSA151
[32] = system: E. faecium EFM19-1; assay: Antibacterial spectrum; conditions: Enterococcus faecium, EFM191
[33] = system: susceptible and resistant Gram-positive bacteria; assay: Antibacterial spectrum; format: cell-based, S. aureus, S. epidermidis, E. faecalis, E. faecium; conditions: read-out: MIC against susceptible and resistant Gram-positive bacteria
[34] = system: methicillin-resistant S. aureus (ATCC43300); assay: Mouse model of sepsis induced by MRSA; format: in vivo, ICR mice; conditions: 10 mg/kg ig, MRSA ATCC43300, observed 7 days
[35] = system: S. aureus MSSA15-2; assay: Antibacterial spectrum; conditions: Staphylococcus aureus, MSSA152
[36] = system: HepG2 cells; assay: Mitochondrial toxicity; conditions: HepG2 cells, 50–800 μmol/L
[37] = both, beagle, dog, plasma, iv, 1 mg/kg
[38] = both, beagle, dog, plasma, po, 1 mg/kg

CO[C@H]1CN(c2ccc(C(C)(C)O)nn2)CC[C@H]1NC(=O)c1[nH]c(C)c(Cl)c1Cl [Compound 28, 3,4-Dichloro-N-((3S,4R)-1-(6-(2-hydroxypropan-2-yl)pyridazin-3-yl)-3-methoxypiperidin-4-yl)-5-methyl-1H-pyrrole-2-carboxamide]
MIC [1]: 0.03 µg/mL (≈ 0.0678 µM) | Cmax [2, 37]: 5510 ng/mL | MRT inf [2, 37]: 12.3 h | MRT last [2, 37]: 9.79 h | Tmax [2, 37]: 0.873 h | clearance [2, 37]: 0.33 mL/min/kg | half-life [2, 37]: 11.3 h | Cmax [2, 38]: 3750 ng/mL | MRT inf [2, 38]: 9.85 h | MRT last [2, 38]: 9.07 h | Tmax [2, 38]: 1.75 h | bioavailability [2, 38]: 66.8% | half-life [2, 38]: 8.53 h | AUC0–48 ([2]; iv (1 mg/kg)): 56,432.101 μg·h | AUC0–∞ ([2]; iv (1 mg/kg)): 58,890.621 μg·h | AUC0–48 ([2]; po (1 mg/kg)): 38,552.203 μg·h | AUC0–∞ ([2]; po (1 mg/kg)): 39,362.651 μg·h | IC50 [3]: 1480 ± 441 nM | MIC [4]: 1 µg/mL (≈ 2.26 µM) | reduction of colony-forming unit (CFU) in the thigh [5]: 3–4 log10 | MIC [6]: 0.015 µg/mL (≈ 0.0339 µM) | MIC [7]: 0.015 µg/mL (≈ 0.0339 µM) | MIC [8]: 0.015 µg/mL (≈ 0.0339 µM) | mutagenic effects in Mini-Ames test [9]: did not show any mutagenic effects | time-kill curve [10]: time-dependent bactericidal effect | spontaneous resistance frequency [11]: < 4.3 × 10^–12 | MIC [12]: 0.015 µg/mL (≈ 0.0339 µM) | IC50 [13]: > 30000 nM | MIC [14]: 0.015 µg/mL (≈ 0.0339 µM) | spontaneous resistance frequency [15]: less than 8 × 10^–12 | MIC [16]: ≤ 0.015 µg/mL | MIC [17]: 4 µg/mL (≈ 9.04 µM) | IC50 [18]: > 10000 nM | IC50 at 48 h [19]: > 10000 nM | MIC [20]: 0.015 µg/mL (≈ 0.0339 µM) | IC50 [21]: 49 ± 5 nM | LD50 at 7 days ([22]; ip): > 300 mg/kg | LD50 at 7 days ([22]; iv): > 100 mg/kg | LD50 at 7 days ([22]; po): > 800 mg/kg | MIC [23]: 8 µg/mL (≈ 18.1 µM) | IC50 at 48 h [24]: > 10000 nM | MIC [25]: 0.015 µg/mL (≈ 0.0339 µM) | MIC [26]: 0.015 µg/mL (≈ 0.0339 µM) | MIC [27]: 0.015 µg/mL (≈ 0.0339 µM) | Kd [28]: 52 nM | IC50 at 48 h [29]: > 10000 nM | IC50 [30]: 1510 ± 460 nM | MIC [31]: 0.015 µg/mL (≈ 0.0339 µM) | MIC [32]: 0.015 µg/mL (≈ 0.0339 µM) | MIC [33]: < 0.03 µg/mL | protective effect / survival in mouse model of sepsis [34]: survived | MIC [35]: 0.015 µg/mL (≈ 0.0339 µM) | mitochondrial toxicity [36]: much less toxicity
